In the METLIN SMRT retention time set (Domingo-Almenara et al. 2019):

Assay: gradient 5% acetonitrile 3 min, to 50% in 2 min, to 85% in 15 min, held 3 min, 100 µL/min
Settings: column: Zorbax Extend-C18 2.1 x 50 mm; eluents: water / acetonitrile, 0.1% formic acid
How it was run: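 Standards, all pure, were combined into mixtures of ~100 molecules and run at 100 μL/min on a Zorbax Extend-C18 column (2.1 × 50 mm, 1.8 μm) with water and acetonitrile, each containing 0.1% formic acid. A coupled quadrupole time-of-flight mass spectrometer operated in positive and negative ionization mode. Retention time values come from computationally picked adduct peaks, each inspected manually.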

SMILES	RP-LC retention time [s]
Cc1noc([C@@H]2CN(Cc3ccccc3C(F)(F)F)C[C@H]2CO)n1	604
CCNS(=O)(=O)c1cccnc1Nc1ccc(F)c(Cl)c1	1040
CC(NC(=O)Cn1cnc2cc3c(cc21)OCCO3)c1ccc2c(c1)OCCCO2 (centres undefined)	646
CN(C(=O)Cc1nnc2cc(-c3nc(C4CC4)no3)ccn12)C1CCCCC1	1010
CN(C)C(=O)N1CCc2nn(Cc3ccccc3)c(=O)n2CC1	649
Cc1noc(-c2cc(=O)n(CC(=O)Nc3cccc(C(C)C)c3)c3ccccc23)n1	996
Cc1cccc(NC(=O)c2cc(C(C)C)n3nccc3n2)c1	1160
O=C(CSCC(=O)N1CCOCC1)Nc1nc(-c2ccc3c(c2)OCO3)cs1	681
COc1cccc(NC(=O)C2CCCN(c3nc4ccsc4c(=O)n3-c3cccc(OC)c3)C2)c1 (centres undefined)	921
Cc1nnc(N2CCCC(C(=O)NCc3cccnc3)C2)c2nn(-c3ccccc3)c(C)c12 (centres undefined)	579
COc1ccc(Cl)cc1NC(=O)Nc1c(-c2ccncc2)nc2ccccn12	642
O=C(O)c1cc2cc(Cl)ccc2[nH]1	740
COc1ccc(-c2nnc3ccc(SCC(=O)Nc4cc(C)on4)nn23)cc1OC	606
C=CCn1c(=O)c2ccccc2n(Cc2nc(-c3ccc(Cl)cc3)no2)c1=O	1130
COc1ccc(C)cc1Nc1c(C(=O)N2CCCC2)cnc2nc(C)ccc12	601
Cc1ccc(NS(=O)(=O)c2cc3n(c2)CCN(C)C3=O)cc1	700
CC1CCN(c2ccc(N3CCN(S(=O)(=O)c4cc(F)ccc4F)CC3)nn2)CC1	606
COc1ccc(NC(=O)c2noc3c2CC(C)CC3)cc1OC (centres undefined)	895
COc1cc(NC(=O)N2CCN(CCn3c(C(F)(F)F)nc4cccnc43)CC2)cc(OC)c1	642
O=C(Nc1nnc(C2CC(=O)N(c3ccccc3)C2)o1)c1cccc(F)c1 (centres undefined)	711
CCCS(=O)(=O)c1ccc(N2CCN(c3ccccc3OC)CC2)nn1	809
O=C(Nc1cccc2ccccc12)c1ccc(F)cc1	812
CC(=O)N1CCN(c2nc3c(s2)CC(C(=O)N2CCCCCC2)CC3)CC1 (centres undefined)	614

SMILES	RP-LC retention time [s]
CCOc1ccc(-c2csc(Nc3cc(C)ccn3)n2)cc1	833
COc1cc(=O)n2c(c1C(=O)Nc1ccc(Cl)c(Cl)c1)CCCC2	823
O=C1CN(S(=O)(=O)c2cccc3cccnc23)C2(CCCC2)CN1	685
COC1CN(c2cccc(F)c2)C12CCN(C(=O)C1(c3ccccc3)CC1)CC2 (centres undefined)	1120
Cc1ccc(NC(=O)Cn2cnc3c(sc4nc(-c5ccccc5)ccc43)c2=O)c(C)c1	1060
Cn1cc(-c2ccncc2)cc1C(=O)NCc1cccc(Br)c1	672
COC(=O)c1cc(S(=O)(=O)N2CCCC2C(=O)Nc2nc(C)cs2)cn1C (centres undefined)	791
O=S(=O)(c1ccc2nncn2c1)N(Cc1cc(F)cc(F)c1)c1cccc(F)c1	895
CCCc1nc(C(C)(C)O)c(C(=O)O)n1Cc1ccc(-c2ccccc2-c2nn[nH]n2)cc1	687
COc1ncc(C(=O)NCc2ccccc2F)cn1	680
CCCc1ccc(S(=O)(=O)N2CCC3(CC2)NCCN=C3NCc2ccccc2OC)cc1	836
CC1=C(c2cccc(Cl)c2)S(=O)(=O)N=C1N1CCC(NC(=O)NCC(C)C)CC1	651
CCc1noc(NC(C)=O)c1-c1ccc(C)c(S(=O)(=O)N2CCc3ccccc32)c1	920
COc1ccc(-c2nnc(-c3ccc(Cl)c(S(=O)(=O)N(C)C)c3)o2)cc1	913
Cn1cc(S(=O)(=O)N2CCC(C(=O)N3CCc4ccccc43)CC2)cc1C(=O)N1CCCC1	805
CCc1ccc(S(=O)(=O)N2CCC(C)(C(=O)NCc3ccccc3C)CC2)cc1	1020
O=C(c1ccc([N+](=O)[O-])o1)N1CCN(Cc2nnnn2-c2ccc(F)cc2)CC1	755
Cc1ccc(-c2nc3nc(C)cc(C)n3c2Nc2ccccc2)cc1	726
Cc1ccc(-c2cn3c(CC(=O)Nc4ccc5c(c4)OCCO5)csc3n2)cc1C	806
Cc1ccc(C(=O)N(CCCN)[C@@H](c2oc3cc(Cl)ccc3c(=O)c2Cc2ccccc2)C(C)C)cc1	863
O=C(c1sc2cccc(F)c2c1Cl)N1CCN(c2ncccn2)CC1	893
CCS(=O)(=O)N1CC(=O)N(c2ccc(Cl)cc2)C(C)(C(=O)NCc2ccccc2)C1 (centres undefined)	848
Cc1ccc(NC(=O)C2CCCN(c3ncnc4c3nc3n4CCCCC3)C2)cc1C (centres undefined)	870

SMILES	RP-LC retention time [s]
Cn1c(=O)c2c(ncn2CC(=O)N2CCC(Cc3nc(C4CCOCC4)no3)CC2)n(C)c1=O	610
COc1ccc(N2C(=O)NC3CC2(C)Oc2ccc(OC)cc23)cc1 (centres undefined)	765
COc1ccc(/C=C/C(=O)Nc2ccccc2C(=O)O)cc1OC	927
CC(C)N1CCN(S(=O)(=O)c2cc(-c3nnc(C4CC4)o3)co2)CC1	599
O=C1CCCCC(Cc2ccccc2)(C(=O)NCCc2c[nH]c3ccccc23)N1 (centres undefined)	791
Cc1nnc(NC(=O)c2ccc(S(=O)(=O)NCc3ccccn3)o2)s1	581
CCn1ccc(C(=O)N2CCCN(C3=NS(=O)(=O)C(c4ccc(C)cc4)=C3C)CC2)n1	790
COc1ccc(CNC(=O)C2CCN(c3nc(C4CCC4)nc4csc(C)c34)CC2)cc1OC	957
Cc1cc(C)c(-c2csc(NC(=O)c3ccccc3[N+](=O)[O-])n2)c(C)c1	1070
CCCN(CC(=O)N1CCc2sccc2C1COc1ccc(F)cc1)C(=O)NCC (centres undefined)	859
O=C(c1[nH]nc2c1CCc1ccccc1-2)N1CCC(c2noc(-c3ccccn3)n2)C1 (centres undefined)	776
Cc1ccc(CNC(=O)Cn2c3ccccc3c3cnn(C)c(=O)c32)o1	925
Cc1cc(C)cc(NC(=O)NC2CCN(c3ccccc3)C2=O)c1 (centres undefined)	697
Cc1cc(C)c(C(=O)N2CCC(CC(=O)NCc3ccc(Cl)cc3)CC2)[nH]1	800
CCCCNC(=O)CN1c2ccc(F)cc2-c2ccccc2S1(=O)=O	884
CCOC(=O)N1CCC(NC(=O)c2csc(-n3cccc3)n2)CC1	760
CCOc1ccccc1-c1nc(Cc2nc(-c3ccc(OC)cc3)oc2C)no1	1160
CN(CCCNC(=O)C1CCc2nc(N3CCCCC3)ncc2C1)c1ccccc1 (centres undefined)	793
Cc1cccc(C(=O)Nc2nc(-c3ccc4c(c3)NC(=O)C(C)O4)cs2)c1 (centres undefined)	962
CCCN1CCN(C(=O)C2Cc3cc(S(=O)(=O)N(CC)CC)ccc3N2C(C)=O)CC1 (centres undefined)	610
Cc1nn(-c2ccccc2)c(C)c1S(=O)(=O)N1CCC(C(=O)NCc2ccc(Cl)cc2)CC1	966
COc1ccc(-n2nc3c(N4CCCC(C(=O)NC5CCCC5)C4)nnc(C)c3c2C)cc1 (centres undefined)	696
CCNS(=O)(=O)c1cccnc1Nc1cccc(C)c1	998

SMILES	RP-LC retention time [s]
Cc1cc(N2CCC(C)CC2)n2nc(CN3CCN(C(C)C)CC3)nc2n1	590
Cc1cc(NC(=O)c2nc3ccccc3s2)sn1	809
c1ccc(CNc2cc(-n3ccnc3)ncn2)cc1	610
CN1CCN(CC2(O)CCC3(CCN(C(=O)c4ccoc4)CC3)CC2)CC1	551
CNC(=O)NC1CCN(C(=O)c2ccc(F)cc2)C1 (centres undefined)	600
CCCC(=O)N1CCc2c(c(C(=O)NCc3ccc4c(c3)OCO4)nn2C)C1	728
COc1ccc(-c2nnc3ccc(SCC(=O)Nc4nc(C)cs4)nn23)cc1OC	606
CCOC(=O)c1nc(N(C)c2cc(C)ccc2C)c2ccccc2n1	1010
COC(=O)c1ccc(NS(=O)(=O)c2cccc(S(C)(=O)=O)c2)cc1	706
Cc1cccc(Cn2nc3ccc(S(=O)(=O)N4CCOCC4)cn3c2=O)c1	826
Cc1ccc(CS(=O)Cc2ccc(C(=O)NCCN(C)C)o2)cc1 (centres undefined)	587
Cc1ccc(Cn2cccc2C(=O)C(=O)NC2CCCC2)cc1	1100
Cn1ncc2c(N3CCSCC3)nc(C(=O)NCCc3ccncc3)nc21	559
Cc1cccc(NC(=O)C2CCN(S(=O)(=O)c3cc(C(=O)N4CCCC4)cs3)CC2)c1	819
Cc1ccc(N2C(=O)CN(S(C)(=O)=O)CC2(C)C(=O)NCc2ccc(F)cc2)cc1C (centres undefined)	818
CN(C)S(=O)(=O)c1ccc(C(=O)Nc2nc(-c3ccc4c(c3)OCO4)cs2)cc1	910
O=C(c1ccc(OCC2CCCN2C(=O)Cc2ccc(Cl)cc2)cc1)N1CCOCC1 (centres undefined)	811
Fc1cc(F)cc(-c2nc(-c3cccc(-c4ccn[nH]4)c3)no2)c1	1060
CN(C)c1cccc(/C=C(\C#N)c2ccccc2)c1	1100
CCOC(=O)c1cccc(Nc2c(-c3ccc(OC)c(OC)c3)nc3cnccn23)c1	811
